# Laboratory results from patent US20120190615A1, “METHODS AND COMPOSITIONS FOR INDUCING WEIGHT LOSS” (Sanford-Burnham Medical Research Institute, priority 2011, published 2012).
# “And” between values parts separate entries of the source, which are not always exact repeats. Identical values can stand only once.
# Experiments:
# [1] = tested on: C3H10T1/2 mesenchymal stem cells; assay: Brown fat differentiation of C3H10T1/2 mesenchymal stem cells (Oil Red O, immunoblot, qRT-PCR, MitoTracker); type: cell-based, mouse
# Experimental: OXR1 expression was confirmed in the undifferentiated mesenchymal stem cell line C3H10T1/2 cells (ATCC). Cells were grown to 50-70% confluence in high glucose DMEM supplemented with 10% FBS and differentiated in standard induction media supplemented with 100 nM human orexin A (cat. No. 24470, Anaspec), vehicle, or recombinant human BMP-7 (cat. No. 4579, BioVision, a potent inducer of […] differentiation) for three days, at which time cells reached 100% confluence. Cells were then incubated in adipogenic media for 7 days in the absence of […]. Cells were then stained with Oil Red O according to the following protocol. Cells were washed twice with phosphate-buffered saline (PBS), fixed with 10% buffered formalin for 1 hour at room temperature, washed twice in PBS, stained for 30 minutes at room temperature with a filtered Oil red O (Sigma) solution (0.5% Oil red O in isopropyl alcohol), washed twice with PBS, and stored in PBS for visualization under the inverted microscope (Olympus).
# Following OX treatment, greater than 90% of cells differentiated from an elongated fibroblastic morphology to a spherical one typical of differentiated fat cells. OXR1 expression in the differentiated mesenchymal cells was done using RT-PCR analysis of the OXR1 mRNA. FIG. 4 provides the Ct value OXR1 and the Ct value for 18S RNA is shown for comparison.
# To determine triglyceride content, BAT was homogenized in 1 ml of saline solution and Triglycerides Reagent Kit (Pointe Scientific) was used to determine triglyceride concentration in the tissue.
# Protein extracts from the treated mesenchymal cells was used to assess the expression of early adipogenic transcription factors that are known to function in adipogenesis. Specifically, immunoblotting was used to assess the expression of C/ebp-alpha, Ppar-γ1, Prdm16, Pgc1-alpha, and Ucp1 in the differentiated mesenchymal stem cells.
# The expression of several adipogenic inhibitors was assessed in the differentiated mesenchymal stem cells and control cells by qRT-PCR. Undifferentiated C3H10T1/2 cells abundantly express Necdin, preadpocyte factor-1 (Pref-1), and Wnt10a, all of which inhibit early adipogenic events. Preadipocytes must counteract an adipogenic block imposed by these factors in order to differentiate. […] FIG. 6 illustrates results from a PCR analysis of adipogenic inhibitors in C3H10T1/2 cells treated with BMP-7 or OX for 3 days followed by adipogenic induction for 7 days. Data are expressed as arbitrary units after normalization to 18S RNA.
# The cultured mesenchymal stem cells were assessed for the expression of a variety of regulators of adipogenesis and mitochondrial function, qRT-PCR was performed as follows: RNA was isolated using Trizol lysis reagent (Qiagen) and purified by RNeasy Mini columns (Qiagen), cDNA was produced using an RT-PCR kit (Applied Biosystems) and primers synthesized by Integrated DNA Technologies, and PCR reactions were run in duplicate for each sample and quantified in the ABI Prism 7000 Sequence Detection System (Applied Biosystems) The expression of each RNA was normalized to the 18S RNA level.
# Important adipogenic regulators such as C/ebp. […] Mitochondiral transcription factor (Tfam), cytochrome oxidase (Cox7a, Cox8b) and deiodinase-2 expression were elevated before exposure to adipogenic media, as shown in FIG. 10. […] Expression of stearoyl-CoA desaturase (Scd), an enzyme catalyzing the rate-limiting step in lipid biosynthesis, was also elevated over 100-fold during differentiation. mRNAs encoding other markers fatty acid oxidation such as Lp1, Sirt3, Adam15-1 and Adam15-2, and Adipor1 were enriched in differentiated mesenchymal stem cells following OX treatment (FIG. 11).
# Based on the foregoing studies, three features distinguish BAT from WAT: the appearance of multilocular oil droplets, mitochondrial enrichment, and Ucp-1 expression. […]
# [2] = tested on: WtB6 mice fed a high fat diet; assay: High fat diet six weeks with two weekly OX injections, obesity resistance (Example 12); type: in vivo
# From the text: To confirm that OX prevents obesity under conditions of caloric excess, a high fat diet (HFD) was fed to WtB6 mice for six weeks. Mice received two weekly OX or PBS injections (n=6/group). Food intake and body weight of both groups were monitored weekly. […] OX-injected animals, however, resisted weight gain, which became apparent during the second wk of therapy (FIG. 28B). At the conclusion of the treatment period, OX-treated mice were visibly lean (FIG. 28C, D) and weighed 7 g±1.2 g less than the control group (FIG. 28B, Table 3). […] Total visceral fat was reduced by more than 60%. Visceral fat in the OX-injected group was noticeably darker in color relative to control tissue (FIG. 28E, F).
# Further, the respiratory quotient of OX-injected group was 10% lower than the vehicle injected group, indicating higher fat oxidation capacity (FIG. 28J). […] To determine whether systemic OX injection induces BAT activity, mice with OX (10 mg/kg) or PBS were compared, using relative UCP-1 expression as an indicator for BAT activity 24-hours post-injection.
# [3] = tested on: C3H10T1/2 cells; assay: Oxygen consumption / uncoupled respiration of cultured mesenchymal stem cells; type: cell-based, mouse
# From the text: To determine whether the increased respiration was uncoupled from ATP synthesis, oligomycin-insensitive respiration was first assayed as a measure of uncoupled respiration. Oligomycin inhibits F1 ATP synthetase to suppress only oxidative phosphorylation-associated respiration.
# [4] = HFD six weeks, two weekly injections
substance,measurement,setting,value
"orexin-A (EPLPDCCRQKTCSCRLYELLHGAGNHAAGILTL) [OX, human orexin A, cat; No. 24470, Anaspec]",cells differentiated from fibroblastic to spherical morphology typical of differentiated fat cells,"[1]; 100 nM OX 3 days, then adipogenic media 7 days",greater than 90%
same,mitochondrial biogenesis,[1]; MitoTracker staining,induced extensive mitochondrial biogenesis
same,"expression of stearoyl-CoA desaturase (Scd), elevation",[1]; during differentiation,over 100 fold
same,rate and extent of cytoplasmic triglyceride accumulation,[1]; following OX treatment,comparable to that seen following treatment with BMP-7
same,"expression of adipogenic transcription factors C/ebp-alpha, Ppar-γ1, Prdm16, Pgc1-alpha, Ucp1",[1]; immunoblotting,comparable to that induced by BMP-7
same,Ucp-1 and deiodinase type 2 mRNA expression,[1]; qRT-PCR,induced
same,"mRNAs encoding inhibitory factors Necdin, Preadipocyte factor-1, Wnt10a","[1]; qRT-PCR, 3 days treatment then 7 days adipogenic induction",suppression
same,Pref-1 expression,"[1]; qRT-PCR, normalized to 18S RNA",decreased by two orders of magnitude
same,"adipogenic regulators C/ebp, Prdm16, Ppar-gamma, Foxc2, Zfp423","[1]; qRT-PCR, prior to suppression of adipogenic inhibitors",significantly increased
same,% body fat,[2]; [4],15% and 15 ± 1.1%
same,Fat mass,[2]; [4],3.4 ± 0.4
same,Fluid content,[2]; [4],7.7 ± 1.5
same,Lean mass,[2]; [4],18.7 ± 1.1
same,Lean mass-fat mass ratio,[2]; [4],5.5 ± 0.3
same,iBAT UCP1 expression,"[2]; OX 10 mg/kg, 24-hours post-injection",higher UCP1 levels than controls
same,body weight less than the control group,[2]; at the conclusion of the treatment period,7 g
same,"oxygen consumed, more than the control group",[2]; calorimetric measurements,15%
same,"respiratory quotient, lower than the vehicle injected group",[2]; calorimetric measurements,10%
same,reduction of total visceral fat,[2]; end of the study,more than 60%
same,reduction of whole body fat mass,[2]; end of the study,50%
same,physical activity,"[2]; infrared monitoring, two weeks",not more physically active
same,increase in twenty-four hour energy expenditure,[2]; relative to control mice,19%
same,cumulative food intake over the 6-week period,[2]; versus vehicle,not significantly different
same,food intake during the first week,[2]; versus vehicle,ate significantly more
same,lean mass or fluid content,[2]; versus vehicle,not significantly different
same,"oxygen consumption, higher",[3]; basal conditions,15 fold
same,oxygen consumption of treated cells in the presence of oligomycin,[3]; oligomycin,efficiently consumed oxygen
same,share of OX-induced respiration uncoupled from ATP synthesis,[3]; oligomycin-insensitive respiration,More than half
